# Results published in patent publication US20180071354A1, “SELECTIVE BREEDING METHOD OF ANTITUMOR/ANTICANCER CAMELLIA SINENSIS STRAIN, AND TEA PRODUCT OF SUCH STRAIN” (FUJIAN AGRICULTURE AND FORESTRY UNIVERSITY, priority 2015, published 2018).
# How the values were obtained:
# Format in all cases: cell-based
# [1] = system: human gastric cancer cell line SMMC-7721; assay: In vitro antitumor/anticancer testing (CCK-8), SMMC-7721; settings: Homo sapiens, SMMC-7721, 48 h
# Experimental: (§1) Each of Tea Product 1 and Conventional Tea Product obtained in section A of this example was used to prepare test tea samples according to the method described below. A proper amount of the respective tea product was added into sterile water to prepare a stock solution with a concentration of 100 mg/mL, followed by using a membrane filter with a pore size of 0.22 μm to conduct vacuum filtration and sterilization. The resulting stock solution was diluted with a respective complete medium shown in Table 3 below to form test tea samples with different concentrations. In other words, the thus obtained test tea samples to be used for treating a respective cancer/tumor cell line shown in Table 3 were prepared using the same complete medium as that for the respective cancer/tumor cell line. […] Specifically, each of the aforesaid commercially available agents was subjected to the method described below to prepare comparative test samples. A proper amount of a respective commercially available agent was dissolved in phosphate-buffered saline (PBS) to prepare a stock solution with a concentration of 5 mg/mL, followed by using a membrane filter with a pore size of 0.22 μm to conduct vacuum filtration and sterilization. The resulting stock solution was diluted with a respective complete medium shown in Table 3 below to form comparative test samples with different concentrations. To be specific, the comparative test samples prepared from the respective commercially available agent have the concentrations shown in Table 2 below. The thus obtained comparative test samples to be used for treating a respective cancer/tumor cell line shown in Table 3 were prepared using the same complete medium as that for the respective cancer/tumor cell line. […] The cultivation of each cancer/tumor cell line is described as follows. […] Afterwards, a cell suspension having a cell density of 1.0×10^4 cells/mL was prepared. […] As experimental groups, the tumor/cancer cells of each cell line were treated with the test tea samples prepared from one or more of the tea products and the comparative test samples prepared from one or more of the commercially available agents as obtained in section B of this example (for more detailed information about the tea product(s) and the commercially available product (s) used to treat each cell line, please see Table 4 below). To be specific, 6 to 10 test tea samples prepared from the same tea product and having different concentrations, as well as 6 to 10 comparative test samples prepared from the same commercially available agent and having different concentrations, were utilized to treat the tumor/cancer cells of each cell line. For each experimental group, 6 repetitions of tumor/cancer treatment were performed. For the control group, 100 μL of PBS was added to a well containing the medium and the cancer/tumor cells of the respective cell line. For the blank group, 100 μL of PBS was added to a well containing a complete medium the same as that used for cultivation of the cancer/tumor cells of the respective cell line. After the treatment described above, cultivation was conducted in an incubator (37° C., 100% relative humidity, 5% CO2) for 48 hours. Subsequently, the liquid containing the medium and the sample in the well was removed, and a respective complete medium (shown in Table 3 above) containing 10% CCK-8 (Cell Counting Kit-8)(Dojindo Molecular Technologies, Inc., Cat. No. CK04-13) was added. Cultivation was performed in an incubator (37° C.) for 2 to 4 hours, followed by gently shaking.
# [2] = system: human squamous cell carcinoma cell line A431; assay: In vitro antitumor/anticancer testing (CCK-8), A431; settings: Homo sapiens, A-431, 48 h
# Experimental: as §1
# [3] = system: human colon cancer cell line HCT-116; assay: In vitro antitumor/anticancer testing (CCK-8), HCT-116; settings: Homo sapiens, HCT-116, 48 h
# Experimental: as §1
# [4] = system: human gastric cancer cell line BGC-823; assay: In vitro antitumor/anticancer testing (CCK-8), BGC-823; settings: Homo sapiens, BGC-823, 48 h
# Experimental: as §1
# [5] = 0.3125 μg/mL, read-out: Percent growth inhibition
# [6] = 0.625 μg/mL, read-out: Percent growth inhibition
# [7] = 1.25 μg/mL, read-out: Percent growth inhibition
# [8] = 2.5 μg/mL, read-out: Percent growth inhibition
# [9] = 5 μg/mL, read-out: Percent growth inhibition
# [10] = 10 μg/mL, read-out: Percent growth inhibition
# [11] = 20 μg/mL, read-out: Percent growth inhibition
# [12] = 40 μg/mL, read-out: Percent growth inhibition
# [13] = 80 μg/mL, read-out: Percent growth inhibition
smiles,measurement,setting,value
O=c1[nH]cc(F)c(=O)[nH]1 [5-fluorouracil],inhibition at 0.3125 µg/mL,[1]; [5],28.6%
same,inhibition at 0.625 µg/mL,[1]; [6],62.4%
same,inhibition at 1.25 µg/mL,[1]; [7],81%
same,inhibition at 2.5 µg/mL,[1]; [8],82.7%
same,inhibition at 5 µg/mL,[1]; [9],84.3%
same,inhibition at 10 µg/mL,[1]; [10],81.6%
same,inhibition at 20 µg/mL,[1]; [11],79.1%
same,inhibition at 40 µg/mL,[1]; [12],80.2%
same,inhibition at 80 µg/mL,[1]; [13],91%
same,IC50,[1],0.383 µg/mL
same,inhibition at 0.3125 µg/mL,[2]; [5],82.4%
same,inhibition at 0.625 µg/mL,[2]; [6],83.5%
same,inhibition at 1.25 µg/mL,[2]; [7],83.1%
same,inhibition at 2.5 µg/mL,[2]; [8],83%
same,inhibition at 5 µg/mL,[2]; [9],84.4%
same,inhibition at 10 µg/mL,[2]; [10],33.7%
same,inhibition at 20 µg/mL,[2]; [11],96.3%
same,inhibition at 40 µg/mL,[2]; [12],98.2%
same,inhibition at 80 µg/mL,[2]; [13],98.8%
same,IC50,"[2]; A431, read-out: IC50",0.272 µg/mL
same,inhibition at 0.3125 µg/mL,[3]; [5],70.1%
same,inhibition at 0.625 µg/mL,[3]; [6],32.4%
same,inhibition at 1.25 µg/mL,[3]; [7],36.4%
same,inhibition at 2.5 µg/mL,[3]; [8],88.5%
same,inhibition at 5 µg/mL,[3]; [9],89.9%
same,inhibition at 10 µg/mL,[3]; [10],91.9%
same,inhibition at 20 µg/mL,[3]; [11],95.8%
same,inhibition at 40 µg/mL,[3]; [12],97.9%
same,inhibition at 80 µg/mL,[3]; [13],99.5%
same,IC50,[3]; read-out: IC50,0.0493 µg/mL
same,inhibition at 0.3125 µg/mL,[4]; [5],-5.82%
same,inhibition at 0.625 µg/mL,[4]; [6],-4.99%
same,inhibition at 1.25 µg/mL,[4]; [7],-1.41%
same,inhibition at 2.5 µg/mL,[4]; [8],0.92%
same,inhibition at 5 µg/mL,[4]; [9],11.6%
same,inhibition at 10 µg/mL,[4]; [10],23.9%
same,inhibition at 20 µg/mL,[4]; [11],40.9%
same,inhibition at 40 µg/mL,[4]; [12],52.7%
same,inhibition at 80 µg/mL,[4]; [13],62.8%
same,IC50,[4]; read-out: IC50,2.55 µg/mL
